Key:
[1] = Chemical hydrolysis in aqueous phosphate buffer (PBS, pH 7.3); type: physicochemical; conditions: for PBS pH 7.3 t 1/2 / half-life at 0.92 mM: aqueous 25 mM phosphate buffer, pH 7.3, 37 °C, removal of AB group, n.h. = no hydrolysis observed through cleavage of AB-mask; for half-life at 0.92 mM: phosphate buffered saline (PBS), read-out: PBS pH 7.3 t 1/2 (converted)
Experimental: γ‐(AB,alkyl)‐NTP prodrugs 6 and γ‐alkyl‐NTPs 7 were incubated in aqueous phosphate buffer (PBS, 25 mM, pH 7.3), or were exposed to pig liver esterase (PLE) in phosphate buffer (PBS) and to human CD4^+ T‐lymphocyte cell extracts to study their stability and the product distribution. The hydrolysis mixtures were analyzed by means of analytical rp‐18‐HPLC. The calculated half‐lives of prodrugs 6 (Table 1, t 1/2) reflect the removal of the bioreversible AB group to yield γ‐alkyl‐NTPs 7. Possible hydrolysis pathways and products are summarized in Scheme 4.
As hydrolysis products, a predominant formation of γ‐alkyl‐d4TTPs 7 and a very small amount of d4TDP […] was detected (approximately 3 %). After consumption of the starting material, no further increase of d4TDP concentration was observed. This supports the hypothesis that only the double‐γ‐esterified d4TTP prodrugs 6 were prone to a bond breakage between the γ‐ and β‐phosphate. […] In contrast to previous studies with TriPPPro‐NTPs 5 containing a second cleavable mask (first generation NTP prodrugs),[ ^23 , ^24 , ^25 ] no d4TTP was detected in these studies using 6 or 7. A side reaction occurred during the studies using compounds 7 that led to the formation of thymine by the cleavage of the glycosidic bond as reported before.[ ^19 , ^22 ]
(§1) ProLab 300 from Schott Co.. Thermomixer: Eppendorf Thermomixer 5436 and CellMedia Thermoschüttler basic were used. […]
Chemical hydrolysis of prodrugs of γ-(AB,alkyl) d4TTP 6 as well as the γ-alkyl-NTPs 7,15:
Stock solutions (50mM in DMSO-d6) of compounds 6,7 were prepared. After dilution of 11 µL stock solution with 100 µL milliQ water and 189 µL DMSO-d6 to 1.9mM hydrolysis solutions the reaction was started by addition of 300 µL phosphate buffer saline (PBS, 50mM, pH 7.3). The solution was incubated at 37 C in a thermomixer. An initial aliquot (25 µL) was taken directly and analyzed by analytical HPLC at 265-266 nm. Further aliquots were taken for monitoring the kinetic hydrolysis. The exponential decay curves (pseudo-first order) based on absolute integral values were calculated with commercially available software (OriginPro 9.0G) and yielded the half-lives t1/2 of the prodrugs via one determination. […]
The calculation of t1/2 was performed analogously to that for the chemical hydrolysis studies.
(§2) Preparation of cell extracts: Human CD4+ T-lymphocyte CEM cells were grown in RPMI-1640-based cell culture medium to a final density of ~3·10^6 cells/ml. Then, cells were centrifuged for 10 min at 1,250 rpm at 4 °C, washed twice with cold PBS, and the pellet was re-suspended at 10^8 cells/ml and sonicated (Hielscher Ultrasound Techn., 100% amplitude, 3·times for 10 sec) to destroy cell integrity. The resulting cell suspension was then centrifuged at 10,000 rpm to remove cell debris, and the supernatant divided in aliquots before being frozen at -80 C and used.
(1 picture or pasted object on this page, not shown here)

[2] = Enzyme-catalyzed hydrolysis in human CD4+ T-lymphocyte CEM cell extracts; type: in vitro ADME; conditions: for half-life at 0.86 mM: CEM/0 cell extracts (CD4+ T-lymphocytes), human CD4+ T-lymphocyte CEM cell extracts, 37 °C, read-out: CEM/0 cell extracts t 1/2 (converted)
Experimental: The stability of prodrugs 6 and the γ‐alkyl‐NTPs 7 was further investigated in human CD4 ^+ T‐lymphocyte CEM cell extracts. […] Thus, an enzymatic cleavage reaction took place. Half‐lives as low as 0.4 h (6 az) to 5.2 h (6 dz) were determined. […] This is in accordance to our previous results for the DiPPro‐[ ^17 , ^18 ] or the TriPPPro‐compounds 5.[ ^22 , ^23 ] In all cases we observed the predominant formation of γ‐alkyl‐d4TTPs 7 and d4TDP 2 d in very low concentration (Figure 2 B) but no NTP formation was detected, in contrast to the studies using the previously described TriPPPro compounds 5.[ ^23 , ^24 ] However, the difference to the compounds bearing long lipophilic acyl groups was not very pronounced (2‐ to 3‐fold). In the case of γ‐(AB‐C4,alkyl‐C18)‐d4TTP 6 cz, γ‐C18‐d4TTP 7 z was detected as the main product. After 8 h incubation, the ratio of γ‐C18‐d4TTP 7 z and d4TDP 2 d was 5:1. This was in sharp contrast to the studies performed with TriPPPro compounds 5.[ ^23 , ^24 ] There, it was almost impossible to detect significant concentrations of d4TTP due to its fast dephosphorylation to form first d4TDP and finally d4TMP 2 m. […] The formation of thymine or d4TTP 2 t from γ‐C18‐d4TTP 7 z was not detected (Supporting Information, Figure SI2).
as §1
Enzyme-catalyzed hydrolysis of γ-(AB,alkyl)-d4TTPs 6, γ-alkyl-d4TTPs 7,15 and TriPPPros 5 in CEM cell extracts:
18 µL of the appropriate 50 mM DMSO-d6 stock solution was diluted to 6.0 mM hydrolysis solution by addition of 132.0 µL DMSO-d6.
7-10 different samples including 10 µL water and 10 µL hydrolysis solution were prepared in 2 mL Eppendorf® vials. The reaction was started by addition of 50 µL human CEM cell extract and the mixture was incubated at 37 °C for different time periods. The reactions were stopped by addition of 150 μL MeOH. The solution was kept on ice for 5 min followed by centrifugation for 5 min (13000 rpm).
The supernatants were filtered (Chromafil® RC-20/15 MS, 0.2 μm) and stored in liquid nitrogen. When testing, the samples were defrosted and injection volume with 80 μL was used for HPLC analysis. The calculation of t1/2 was performed analogously to that for the chemical hydrolysis studies.
as §2

| half-life at 0.92 mM [1] | Compound | calculated half-life in PBS hydrolysis (decrease by thymine formation, cleavage of the glycosidic bond) ([1]; PBS pH 7.3) | PBS pH 7.3 t 1/2 [1] | half-life at 0.86 mM [2] | stability in cell extracts (in words) ([2]; CEM cell extracts, incubation up to 30 h) |
| --- | --- | --- | --- | --- | --- |
|  | CCCCCCCCCCCCCCCCCCOP(=O)(O)OP(=O)(O)OP(=O)(O)OCC1C=CC(n2cc(C)c(=O)[nH]c2=O)O1 (stereo not shown) [7 z, γ‐C18‐d4TTP] | about 1500 h | n.h.^[c] | > 1800 min |  |
|  | CCCCOP(=O)(O)OP(=O)(O)OP(=O)(O)OCC1C=CC(n2cc(C)c(=O)[nH]c2=O)O1 (stereo not shown) [7 w, γ‐C4‐d4TTP] |  | n.h.^[c] | > 1800 min |  |
| 9.88 days | CCCCCCCCCCCCCCCCCCOP(=O)(OCc1ccc(OC(=O)CCCC)cc1)OP(=O)(O)OP(=O)(O)OCC1C=CC(n2cc(C)c(=O)[nH]c2=O)O1 (stereo not shown) [6 cz, γ‐(AB‐C4,alkyl‐C18)‐d4TTP] |  |  | 288 min |  |
|  | Cc1cn(C2C=CC(COP(=O)(O)OP(=O)(O)OP(=O)(O)O)O2)c(=O)[nH]c1=O (stereo not shown) [2 t, d4TTP, reference compound] |  |  |  | rapidly enzymatically dephosphorylated |
| 8.25 days | CCCCCCCCCCCCCCCC(=O)Oc1ccc(COP(=O)(OCCCC)OP(=O)(O)OP(=O)(O)OCC2C=CC(n3cc(C)c(=O)[nH]c3=O)O2)cc1 (stereo not shown) [6 ew, γ‐(AB‐C15,alkyl‐C4)‐d4TTP] |  |  | 132 min |  |
